Data published in ChEMBL document CHEMBL4138197, “Design, synthesis and pharmacological evaluation of N-(5-chloro-2,4-dihydroxybenzoyl)-(R)-N-arylmethyl-1,2,3,4-tetrahydro-3-isoquinolinecarboxamides as potent Hsp90 inhibitors” (Eur J Med Chem, 2018).
pIC50: −log10 of the molar value.

Key:
[1] = test system: A549; assay: Antiproliferative activity against human A549 cells after 72 hrs by SRB assay; assay type: functional, cell-based; conditions: A549, 72 h
[2] = test system: MDA-MB-231; assay: Antiproliferative activity against human MDA-MB-231 cells after 72 hrs by SRB assay; assay type: functional, cell-based; conditions: MDA-MB-231, 72 h

Row | SMILES | pIC50 [1] | pIC50 [2]
1 | O=C(NCc1ccccc1)[C@H]1Cc2ccccc2CN1C(=O)c1cc(Cl)c(O)cc1O | 5.78 | 5.95
2 | COc1cc(CNC(=O)[C@H]2Cc3ccccc3CN2C(=O)c2cc(Cl)c(O)cc2O)ccc1O | 5.58 | 5.67
3 | O=C(NCc1ccc(OC(F)(F)F)cc1)[C@H]1Cc2ccccc2CN1C(=O)c1cc(Cl)c(O)cc1O | 5.67 | 5.65
4 | CS(=O)(=O)c1ccc(CNC(=O)[C@H]2Cc3ccccc3CN2C(=O)c2cc(Cl)c(O)cc2O)cc1 | 5.58 | 6.02
5 | COc1ccc(CNC(=O)[C@H]2Cc3ccccc3CN2C(=O)c2cc(Cl)c(O)cc2O)cc1OC | 5.77 | 5.78
6 | COc1cc(CNC(=O)[C@H]2Cc3ccccc3CN2C(=O)c2cc(Cl)c(O)cc2O)cc(OC)c1OC | 5.58 | 5.66
7 | O=C(NCc1cccc(Cl)c1)[C@H]1Cc2ccccc2CN1C(=O)c1cc(Cl)c(O)cc1O | 5.74 | 5.71
8 | COc1cccc(CNC(=O)[C@H]2Cc3ccccc3CN2C(=O)c2cc(Cl)c(O)cc2O)c1 | 5.81 | 5.74
9 | O=C(NCc1cccnc1)[C@H]1Cc2ccccc2CN1C(=O)c1cc(Cl)c(O)cc1O | 5.82 | 6.09
10 | O=C(NCc1ccccc1Cl)[C@H]1Cc2ccccc2CN1C(=O)c1cc(Cl)c(O)cc1O | 5.84 | 5.77
11 | N#Cc1ccc(CNC(=O)[C@H]2Cc3ccccc3CN2C(=O)c2cc(Cl)c(O)cc2O)cn1 | 5.56 | 5.68
12 | O=C(NCc1cccc2ccccc12)[C@H]1Cc2ccccc2CN1C(=O)c1cc(Cl)c(O)cc1O | 5.56 | 5.62
13 | O=C(NCc1ccc(Cl)c(Cl)c1)[C@H]1Cc2ccccc2CN1C(=O)c1cc(Cl)c(O)cc1O | 5.84 | 5.79
14 | NS(=O)(=O)c1ccc(CNC(=O)[C@H]2Cc3ccccc3CN2C(=O)c2cc(Cl)c(O)cc2O)cc1 | < 5.00 | < 5.00
15 | COc1ccc(CNC(=O)[C@H]2Cc3ccccc3CN2C(=O)c2cc(Cl)c(O)cc2O)c(OC)c1 | 5.85 | 5.94
16 | COc1ccccc1CNC(=O)[C@H]1Cc2ccccc2CN1C(=O)c1cc(Cl)c(O)cc1O | 5.94 | 6.02
17 | CS(=O)(=O)c1cccc(CNC(=O)[C@H]2Cc3ccccc3CN2C(=O)c2cc(Cl)c(O)cc2O)c1 | < 5.00 | 5.41

Molecules with a higher pIC50 [1], results first:

Row | pIC50 [1] | pIC50 [2] | SMILES
18 | 5.95 | 5.68 | O=C(NCc1cccc(Cl)c1Cl)[C@H]1Cc2ccccc2CN1C(=O)c1cc(Cl)c(O)cc1O
19 | 5.97 | 6.05 | O=C(NCc1ccc2c(c1)CCO2)[C@H]1Cc2ccccc2CN1C(=O)c1cc(Cl)c(O)cc1O
20 | 5.97 | 6.05 | COc1ccc(CNC(=O)[C@H]2Cc3ccccc3CN2C(=O)c2cc(Cl)c(O)cc2O)cc1
21 | 6.02 | 5.75 | Cc1cccc(CNC(=O)[C@H]2Cc3ccccc3CN2C(=O)c2cc(Cl)c(O)cc2O)c1
22 | 6.05 | 6.30 | O=C(NCc1ccco1)[C@H]1Cc2ccccc2CN1C(=O)c1cc(Cl)c(O)cc1O
23 | 6.05 | 6.20 | O=C(NCc1ccccn1)[C@H]1Cc2ccccc2CN1C(=O)c1cc(Cl)c(O)cc1O
24 | 6.12 | 6.11 | O=C(NCc1ccc(Cl)cc1)[C@H]1Cc2ccccc2CN1C(=O)c1cc(Cl)c(O)cc1O
25 | 6.19 | 6.10 | O=C(NCc1cccc([N+](=O)[O-])c1)[C@H]1Cc2ccccc2CN1C(=O)c1cc(Cl)c(O)cc1O
26 | 6.19 | 6.15 | O=C(NCc1ccc2c(c1)OCO2)[C@H]1Cc2ccccc2CN1C(=O)c1cc(Cl)c(O)cc1O
27 | 6.19 | 5.84 | Cc1ccccc1CNC(=O)[C@H]1Cc2ccccc2CN1C(=O)c1cc(Cl)c(O)cc1O
28 | 6.19 | 6.02 | O=C(NCc1ccc(Cl)cc1Cl)[C@H]1Cc2ccccc2CN1C(=O)c1cc(Cl)c(O)cc1O
29 | 6.21 | 6.28 | N#Cc1ccc(CNC(=O)[C@H]2Cc3ccccc3CN2C(=O)c2cc(Cl)c(O)cc2O)nc1
30 | 6.27 | 6.40 | O=C(NCc1ccc([N+](=O)[O-])cc1)[C@H]1Cc2ccccc2CN1C(=O)c1cc(Cl)c(O)cc1O
31 | 6.28 | 6.22 | Cc1ccc(CNC(=O)[C@H]2Cc3ccccc3CN2C(=O)c2cc(Cl)c(O)cc2O)cc1
32 | 6.30 | 6.19 | N#Cc1cccc(CNC(=O)[C@H]2Cc3ccccc3CN2C(=O)c2cc(Cl)c(O)cc2O)c1
33 | 6.35 | 6.40 | CN(C)c1ccc(CNC(=O)[C@H]2Cc3ccccc3CN2C(=O)c2cc(Cl)c(O)cc2O)cc1
34 | 6.46 | 6.46 | N#Cc1ccc(CNC(=O)[C@H]2Cc3ccccc3CN2C(=O)c2cc(Cl)c(O)cc2O)cc1
35 | 7.00 | 7.22 | COC1=C2C[C@@H](C)C[C@H](OC)[C@H](O)[C@@H](C)/C=C(\C)[C@H](OC(N)=O)[C@@H](OC)/C=C\C=C(/C)C(=O)NC(=CC1=O)C2=O [GELDANAMYCIN]
